Test results from ChEMBL document CHEMBL2203257 (Bioorg Med Chem Lett, 2012).

Legend:
[1] = target: Phosphatidylinositol 4,5-bisphosphate 3-kinase catalytic subunit gamma isoform (Homo sapiens, UniProt P48736); assay: Inhibition of PI3Kgamma by kinobeads assay
[2] = target: Phosphatidylinositol 4,5-bisphosphate 3-kinase catalytic subunit alpha isoform (Homo sapiens, UniProt P42336); assay: Inhibition of PI3Kalpha assessed as change in pIC50 by kinobeads assay
[3] = target: Phosphatidylinositol 4,5-bisphosphate 3-kinase catalytic subunit beta isoform (Homo sapiens, UniProt P42338); assay: Inhibition of PI3Kbeta assessed as change in pIC50 by kinobeads assay
[4] = target: T1, Phosphatidylinositol 4,5-bisphosphate 3-kinase catalytic subunit delta isoform (Homo sapiens, UniProt O00329); assay: Inhibition of PI3Kdelta assessed as change in pIC50 by kinobeads assay
T1 sequence (O00329 whole entry): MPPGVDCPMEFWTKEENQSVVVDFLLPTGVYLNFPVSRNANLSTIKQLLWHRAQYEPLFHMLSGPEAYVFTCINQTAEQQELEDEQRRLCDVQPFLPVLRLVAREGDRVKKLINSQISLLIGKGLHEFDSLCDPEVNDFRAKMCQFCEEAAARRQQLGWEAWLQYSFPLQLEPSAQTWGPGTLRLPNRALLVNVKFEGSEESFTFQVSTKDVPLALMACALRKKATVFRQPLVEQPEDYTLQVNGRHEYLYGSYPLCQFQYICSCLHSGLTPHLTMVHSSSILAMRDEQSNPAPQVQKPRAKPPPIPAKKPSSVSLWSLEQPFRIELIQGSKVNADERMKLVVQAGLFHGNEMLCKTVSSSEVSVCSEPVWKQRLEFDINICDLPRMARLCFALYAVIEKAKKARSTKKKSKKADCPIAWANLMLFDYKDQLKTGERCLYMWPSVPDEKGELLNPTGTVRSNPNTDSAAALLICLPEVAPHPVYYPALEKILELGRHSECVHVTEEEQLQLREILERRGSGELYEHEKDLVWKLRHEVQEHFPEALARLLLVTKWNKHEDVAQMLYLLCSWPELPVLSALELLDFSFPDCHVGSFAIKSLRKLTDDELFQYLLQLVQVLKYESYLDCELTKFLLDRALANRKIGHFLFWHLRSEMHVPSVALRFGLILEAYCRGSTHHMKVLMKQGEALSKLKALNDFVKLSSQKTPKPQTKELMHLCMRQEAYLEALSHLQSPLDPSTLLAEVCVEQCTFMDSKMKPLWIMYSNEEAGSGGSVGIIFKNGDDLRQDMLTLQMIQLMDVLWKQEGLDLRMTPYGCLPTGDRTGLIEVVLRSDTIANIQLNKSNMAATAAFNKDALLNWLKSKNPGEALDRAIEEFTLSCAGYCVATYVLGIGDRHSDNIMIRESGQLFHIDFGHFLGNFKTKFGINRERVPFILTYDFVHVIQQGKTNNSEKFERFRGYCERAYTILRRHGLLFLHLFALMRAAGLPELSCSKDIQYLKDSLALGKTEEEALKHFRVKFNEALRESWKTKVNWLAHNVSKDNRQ

Mus musculus = assay: Antiinflammatory activity in mouse IL-8-induced air-pouch model assessed as inhibition of granulocyte migration at 3 mg/kg, po; design: scale not given: the % may be the effect or the level left
[5] = target: Phosphatidylinositol 4,5-bisphosphate 3-kinase catalytic subunit delta isoform/gamma isoform (Homo sapiens, UniProt P48736+O00329); assay: Inhibition of PI3Kgamma/delta by neutrophil migration assay
Hepatocyte [6] = assay: Metabolic stability in human hepatocytes measured per gram of tissue; type: ADME, cell-based
Hepatocyte [7] = assay: Metabolic stability in rat hepatocytes measured per gram of tissue; type: ADME, cell-based
Hepatocyte [8] = assay: Metabolic stability in mouse hepatocytes measured per gram of tissue; type: ADME, cell-based
Liver microsomes = assay: Volume of distribution at steady state […] at 5 mg/kg, po; type: ADME, organism-based; design: dose 5 mg/kg, route oral
[9] = Half life in rat […] at 5 mg/kg, po; type: ADME, organism-based; design: dose 5 mg/kg, route oral
[10] = Cmax in rat […] at 5 mg/kg, po; type: ADME, organism-based; design: dose 5 mg/kg, route oral
[11] = AUC in rat […] at 5 mg/kg, po; type: ADME, organism-based; design: dose 5 mg/kg, route oral
[12] = Oral bioavailability in Wistar rat at 5 mg/kg; details: in vivo

Phosphatidylinositol 4,5-bisphosphate 3-kinase catalytic subunit gamma isoform, sequence (P48736 whole entry, canonical isoform): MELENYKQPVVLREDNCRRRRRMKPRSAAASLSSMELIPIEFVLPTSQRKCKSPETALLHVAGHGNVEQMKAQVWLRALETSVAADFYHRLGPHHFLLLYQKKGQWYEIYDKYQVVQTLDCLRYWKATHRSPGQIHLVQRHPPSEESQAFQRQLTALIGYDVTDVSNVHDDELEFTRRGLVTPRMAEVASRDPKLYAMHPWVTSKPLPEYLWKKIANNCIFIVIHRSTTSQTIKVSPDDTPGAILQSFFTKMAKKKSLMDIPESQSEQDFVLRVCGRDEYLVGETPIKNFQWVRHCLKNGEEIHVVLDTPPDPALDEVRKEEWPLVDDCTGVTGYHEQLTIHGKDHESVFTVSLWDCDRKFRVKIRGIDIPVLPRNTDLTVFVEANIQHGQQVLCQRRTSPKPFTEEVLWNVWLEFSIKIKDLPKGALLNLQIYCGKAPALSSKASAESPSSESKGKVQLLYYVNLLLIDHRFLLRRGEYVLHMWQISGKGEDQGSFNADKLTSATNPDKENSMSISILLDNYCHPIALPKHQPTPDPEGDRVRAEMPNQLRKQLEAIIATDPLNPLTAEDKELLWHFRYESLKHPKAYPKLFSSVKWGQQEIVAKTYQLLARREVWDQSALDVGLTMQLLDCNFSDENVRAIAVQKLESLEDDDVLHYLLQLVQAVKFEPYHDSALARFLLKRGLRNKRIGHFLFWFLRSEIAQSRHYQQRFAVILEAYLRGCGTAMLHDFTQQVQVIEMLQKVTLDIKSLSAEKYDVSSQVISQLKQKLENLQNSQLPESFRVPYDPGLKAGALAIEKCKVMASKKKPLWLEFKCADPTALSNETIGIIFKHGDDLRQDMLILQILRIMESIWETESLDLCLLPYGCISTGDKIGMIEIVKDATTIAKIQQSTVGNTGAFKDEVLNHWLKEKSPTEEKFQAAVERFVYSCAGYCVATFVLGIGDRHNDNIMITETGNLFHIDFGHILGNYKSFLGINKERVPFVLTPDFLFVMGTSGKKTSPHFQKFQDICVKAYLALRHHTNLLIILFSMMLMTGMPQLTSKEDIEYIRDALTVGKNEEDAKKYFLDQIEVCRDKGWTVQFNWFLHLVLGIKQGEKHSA
Phosphatidylinositol 4,5-bisphosphate 3-kinase catalytic subunit beta isoform, sequence (P42338 whole entry, canonical isoform): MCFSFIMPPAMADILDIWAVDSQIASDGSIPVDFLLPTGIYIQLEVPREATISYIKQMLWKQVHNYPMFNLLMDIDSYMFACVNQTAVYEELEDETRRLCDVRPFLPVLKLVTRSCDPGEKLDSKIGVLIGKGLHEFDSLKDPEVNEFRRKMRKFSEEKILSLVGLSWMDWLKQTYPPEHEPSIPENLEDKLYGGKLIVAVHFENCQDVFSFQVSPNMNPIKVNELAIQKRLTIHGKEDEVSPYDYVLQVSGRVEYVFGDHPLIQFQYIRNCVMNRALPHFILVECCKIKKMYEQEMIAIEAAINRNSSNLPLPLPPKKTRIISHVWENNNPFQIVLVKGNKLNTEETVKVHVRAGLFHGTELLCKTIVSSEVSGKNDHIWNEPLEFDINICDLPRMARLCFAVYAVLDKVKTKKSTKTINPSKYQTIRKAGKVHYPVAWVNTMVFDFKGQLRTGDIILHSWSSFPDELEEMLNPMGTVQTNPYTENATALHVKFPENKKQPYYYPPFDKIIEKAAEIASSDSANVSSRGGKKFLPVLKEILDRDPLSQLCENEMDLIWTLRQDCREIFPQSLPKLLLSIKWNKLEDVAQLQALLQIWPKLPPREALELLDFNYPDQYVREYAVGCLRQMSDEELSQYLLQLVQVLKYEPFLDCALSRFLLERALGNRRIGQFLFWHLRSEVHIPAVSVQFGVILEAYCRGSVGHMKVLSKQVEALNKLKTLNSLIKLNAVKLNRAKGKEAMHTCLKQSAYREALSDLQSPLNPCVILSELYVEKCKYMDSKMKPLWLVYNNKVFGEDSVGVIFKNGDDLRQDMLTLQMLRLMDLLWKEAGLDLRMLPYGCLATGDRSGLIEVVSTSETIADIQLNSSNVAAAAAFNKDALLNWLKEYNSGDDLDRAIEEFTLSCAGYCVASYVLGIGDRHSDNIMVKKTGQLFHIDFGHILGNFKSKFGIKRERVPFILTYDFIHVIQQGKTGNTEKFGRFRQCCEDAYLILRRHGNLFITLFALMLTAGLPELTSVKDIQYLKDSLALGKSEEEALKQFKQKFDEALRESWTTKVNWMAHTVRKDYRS
Phosphatidylinositol 4,5-bisphosphate 3-kinase catalytic subunit alpha isoform, sequence (P42336 whole entry, canonical isoform): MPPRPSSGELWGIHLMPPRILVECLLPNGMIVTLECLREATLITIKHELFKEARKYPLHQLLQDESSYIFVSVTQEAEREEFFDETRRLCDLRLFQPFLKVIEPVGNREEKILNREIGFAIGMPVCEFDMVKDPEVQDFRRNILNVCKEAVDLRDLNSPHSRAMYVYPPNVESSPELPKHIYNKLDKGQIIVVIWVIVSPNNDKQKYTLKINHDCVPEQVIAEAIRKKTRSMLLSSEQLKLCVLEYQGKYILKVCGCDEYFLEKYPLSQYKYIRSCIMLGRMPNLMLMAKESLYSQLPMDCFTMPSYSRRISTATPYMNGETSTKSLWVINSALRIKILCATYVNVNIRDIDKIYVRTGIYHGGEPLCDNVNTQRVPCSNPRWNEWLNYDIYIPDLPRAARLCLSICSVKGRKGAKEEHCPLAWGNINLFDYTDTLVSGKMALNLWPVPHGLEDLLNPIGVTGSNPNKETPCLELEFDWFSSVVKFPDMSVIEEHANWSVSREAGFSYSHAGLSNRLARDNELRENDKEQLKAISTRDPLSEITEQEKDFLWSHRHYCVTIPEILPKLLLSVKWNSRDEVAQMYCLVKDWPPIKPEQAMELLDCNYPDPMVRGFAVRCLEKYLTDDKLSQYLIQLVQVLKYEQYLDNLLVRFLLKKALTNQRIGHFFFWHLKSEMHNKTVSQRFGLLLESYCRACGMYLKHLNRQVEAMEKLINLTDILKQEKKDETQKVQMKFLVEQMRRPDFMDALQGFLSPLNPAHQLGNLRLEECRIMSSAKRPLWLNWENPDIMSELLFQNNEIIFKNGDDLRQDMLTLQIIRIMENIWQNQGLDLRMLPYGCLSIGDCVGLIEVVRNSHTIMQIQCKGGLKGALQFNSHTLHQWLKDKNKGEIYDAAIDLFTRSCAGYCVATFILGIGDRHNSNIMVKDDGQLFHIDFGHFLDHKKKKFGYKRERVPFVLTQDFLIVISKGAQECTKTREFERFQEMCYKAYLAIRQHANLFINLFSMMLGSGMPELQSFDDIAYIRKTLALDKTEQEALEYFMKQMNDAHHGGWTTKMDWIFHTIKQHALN

| SMILES | IC50 [1] [µM] | pIC50 [5] | also measured |
| --- | --- | --- | --- |
| CC(C)(C)NS(=O)(=O)c1cncc(-c2cc(F)c3nc(N)nn3c2)c1 | 0.0251 | – | IC50 [2]: > 10 µM; IC50 [3]: 1 µM; IC50 [4]: 7.94 µM; Activity (Mus musculus): 29% |
| CS(=O)(=O)c1cncc(-c2ccn3nc(N)nc3c2)c1 | 0.0794 | – | – |
| CC(C)(C)NS(=O)(=O)c1cncc(-c2cc(F)n3nc(N)nc3c2)c1 | 0.0158 | 6.1 | CLint (Hepatocyte [6]): 2.5 mL/min/g; CLint (Hepatocyte [7]): 7.5 mL/min/g; CLint (Hepatocyte [8]): 36.1 mL/min/g |
| CCCNS(=O)(=O)c1cncc(-c2ccn3nc(N)nc3c2)c1 | 0.0316 | 6.2 | IC50 [4]: < 20000 µM |
| CC(C)NS(=O)(=O)c1cncc(-c2ccn3nc(N)nc3c2)c1 | 0.0251 | 6.3 | – |
| Nc1nc2cc(-c3cncc(S(=O)(=O)NCC(F)(F)F)c3)ccn2n1 | 0.02 | 5.9 | – |
| CC(C)(NS(=O)(=O)c1cncc(-c2ccn3nc(N)nc3c2)c1)C(F)(F)F | 0.02 | 5.6 | – |
| Nc1nc2cc(-c3cncc(S(=O)(=O)Nc4ccccc4)c3)ccn2n1 | 0.0398 | 5 | – |
| Nc1nc2cc(-c3cncc(S(=O)(=O)NCc4ccccc4)c3)ccn2n1 | 0.1 | – | – |
| CCN(CC)S(=O)(=O)c1cncc(-c2ccn3nc(N)nc3c2)c1 | 0.00794 | 5.9 | – |
| CC1(C)CCN1S(=O)(=O)c1cncc(-c2ccn3nc(N)nc3c2)c1 | 0.0251 | 5.7 | – |
| Nc1nc2cc(-c3cncc(S(N)(=O)=O)c3)ccn2n1 | 0.02 | 6.1 | – |
| CNS(=O)(=O)c1cncc(-c2ccn3nc(N)nc3c2)c1 | 0.0251 | 6.3 | Vdss (Liver microsomes): 2.2 L/kg; half-life [9]: 1.2 h; Cmax [10]: 5 µM; AUC [11]: 6.7 µM·h; bioavailability [12]: 56% |
